In patent US12016829B2, “Pharmaceutical composition and method for treating seizure disorders” (Pike Therapeutics Inc, priority 2019, dated 2024):
Like-named read-outs stand apart in the source and are kept apart here.

Assays:
[1] = Oral bioavailability, AUC and plasma concentration of CBD; format: in vivo, patient
Excerpt: When a medication is orally administered, its bioavailability generally decreases due to incomplete absorption and first-pass metabolism and may vary from patient to patient. The compositions of the disclosure overcome these problems because in transdermal delivery, active agent is delivered directly into systemic circulation through the skin, and it escapes the first pass hepatic metabolism therefore to achieve the desired therapeutic activity less drug is required, resulting into less adverse effects or side effects.
So, the actual dose delivering to patient upon oral delivery is described in Table 3
So, 50 sqcm patch with 7.5 ug/sqcm/hr flux will deliver 9 mg of drug in one day. And 100 sqcm of patch will deliver 18 mg of drug with same flux profile.

[2] = significant number of patients, cited from earlier work
[3] = cited from earlier work

| SMILES | bioavailability ([1]; human, in vivo, oral, read-out: average bioavailability taken for calculation) [%] | Avg. Oral Plasma Concentration ([1]; oral dose 5 mg/kg/day) [ng/mL] | Avg. Oral Plasma Concentration ([1]; oral dose 10 mg/kg/day) [ng/mL] | reduction of total convulsive frequency ([2]; TRE (Dravet syndrome, myoclonic absence seizures, FIRES)) | seizure status at the end of three months treatment [2] | Oral AUC ([3]; oral dose 5 mg/kg/day) [ng·h/mL] | Oral AUC ([3]; oral dose 10 mg/kg/day) [ng·h/mL] | share of the administered dose that reaches systemic circulation ([3]; oral administration, hepatic first pass metabolism) |
| --- | --- | --- | --- | --- | --- | --- | --- | --- |
| C=C(C)[C@@H]1CCC(C)=C[C@H]1c1c(O)cc(CCCCC)cc1O [CBD, 2-[(1R,6R)-6-isopropenyl-3-methylcyclohex-2-en-1-yl]-5-pentylbenzene-1,3-diol] | 15 | 10.0 | 30.0 | greater than 50% | seizure free | 241 | 722 | – |
| CCCCCc1cc(O)c2c(c1)OC(C)(C)c1ccc(C)cc1-2 [Cannabinol] | – | – | – | – | – | – | – | 10%-20% |
